In the supplement of paper PMC11061612:

Tests used:
Assay in all cases: Bliss excess, mean over the matrix (fraction); higher = more synergy
[1] = tested on: OVCA420 (Ovarian Carcinoma)
Outline: (§1)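 After 24 hours at 37°C and 5% CO2 in 1536-well plates, cells in DMEM/F12 or RPMI plus 10% FBS received two-drug dose matrices for 72 hours. Viability came from CellTiter-Glo 2.0 luminescence and was scaled as inhibition, anchored at 0 by vehicle wells and at 1 by blank wells. Combination Emax is taken as the second-highest inhibition in the matrix, and Bliss excess as the observed combination effect less EA + EB − EA·EB, with EA and EB the single-agent effects.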

[2] = tested on: COLO-205 (Colorectal Carcinoma)
Outline: as §1

[3] = tested on: RO82-W-1 (Thyroid Gland Carcinoma)
Outline: as §1

[4] = tested on: LS-180 (Colorectal Carcinoma)
Outline: as §1

[5] = tested on: RC-K8 (B-Cell Non-Hodgkin's Lymphoma)
Outline: as §1

[6] = tested on: UM-UC-3 (Bladder Carcinoma)
Outline: as §1

[7] = tested on: TE-9 (Esophageal Squamous Cell Carcinoma)
Outline: as §1

[8] = tested on: HCC-78 (Lung Adenocarcinoma)
Outline: as §1

[9] = tested on: TCCSUP (Bladder Carcinoma)
Outline: as §1

[10] = tested on: EC-GI-10 (Esophageal Squamous Cell Carcinoma)
Outline: as §1

[11] = tested on: DEL (T-Cell Non-Hodgkin's Lymphoma)
Outline: as §1

[12] = tested on: CCRF-CEM (T-Lymphoblastic Leukemia)
Outline: as §1

[13] = tested on: CaR-1 (Colorectal Carcinoma)
Outline: as §1

[14] = tested on: KP-1N (Pancreatic Carcinoma)
Outline: as §1

[15] = tested on: TE-15 (Esophageal Squamous Cell Carcinoma)
Outline: as §1

HOS (Osteosarcoma) = tested on: HOS (Osteosarcoma)
Outline: as §1

KELLY (Neuroblastoma) = tested on: KELLY (Neuroblastoma)
Outline: as §1

[16] = tested on: LB831-BLC (Bladder Carcinoma)
Outline: as §1

[17] = tested on: NCI-H82 (Small Cell Lung Carcinoma)
Outline: as §1

NB10 (Neuroblastoma) = tested on: NB10 (Neuroblastoma)
Outline: as §1

Structure (SMILES) | Bliss excess [1] | Bliss excess [2] | Bliss excess [3] | Bliss excess [4] | Bliss excess [5] | Bliss excess [6] | Bliss excess [7] | Bliss excess [8] | Bliss excess [9] | Bliss excess [10] | Bliss excess [11] | Bliss excess [12] | Bliss excess [13] | Bliss excess [14] | Bliss excess [15] | Bliss excess (HOS (Osteosarcoma)) | Bliss excess (KELLY (Neuroblastoma)) | Bliss excess [16] | Bliss excess [17] | Bliss excess (NB10 (Neuroblastoma))
CN(CCO)CC[C@H](CSc1ccccc1)Nc1ccc(S(=O)(=O)NC(=O)c2ccc(N3CCC([C@@H](O)c4ccccc4-c4ccc(Cl)cc4)CC3)cc2)cc1S(=O)(=O)C(F)(F)F [AZD4320] + C[C@@H](Nc1cc(F)cc(F)c1)c1cc(C(=O)N(C)C)cc2c(=O)cc(N3CCOCC3)oc12 [AZD8186] (first compound max 1 µM, 7x7, partner max 3 µM) | 0.002 | -0.0302 | -0.0581 | -0.0535 | -0.015 | 0.0327 | 0.0165 | 0.003 | -0.0348 | 0.0191 | 0.0784 | 0.0013 | -0.0193 | 0.0059 | -0.0335 | 0.0607 | 0.029 | 0.0441 | 0.0359 | -0.0357
CC(=O)c1c(C)c2cnc(Nc3ccc(N4CCNCC4)cn3)nc2n(C2CCCC2)c1=O [Palbociclib] + Cn1cnc2c(F)c(Nc3ccc(Br)cc3Cl)c(C(=O)NOCCO)cc21 [Selumetinib] (first compound max 10 µM, 7x7, partner max 10 µM) | -0.0157 | -0.081 | -0.0414 | 0.0098 | -0.0203 | -0.0001 | 0.0099 | -0.0189 | -0.0438 | -0.0407 | 0.0224 | 0.0385 | -0.0229 | -0.0715 | 0.0179 | 0.0109 | 0.09 | -0.0339 | -0.0216 | 0.0998
Cc1nc(Nc2ncc(C(=O)Nc3c(C)cccc3Cl)s2)cc(N2CCN(CCO)CC2)n1 [Dasatinib] + CC(=O)Nc1cccc(-n2c(=O)n(C3CC3)c(=O)c3c(Nc4ccc(I)cc4F)n(C)c(=O)c(C)c32)c1 [Trametinib] (first compound max 2 µM, 7x7, partner max 1 µM) | 0.025 | -0.128 | -0.0202 | 0.0883 | -0.0338 | 0.112 | -0.0104 | -0.0361 | -0.0443 | -0.0871 | 0.0076 | -0.0032 | -0.0711 | 0.0493 | -0.0414 | -0.0361 | 0.0824 | -0.0529 | -0.0149 | -0.0024
CC1(C)CCC(CN2CCN(c3ccc(C(=O)NS(=O)(=O)c4ccc(NCC5CCOCC5)c([N+](=O)[O-])c4)c(Oc4cnc5[nH]ccc5c4)c3)CC2)=C(c2ccc(Cl)cc2)C1 [Venetoclax] + C[C@@H]1COCCN1C2=NC(=NC(=C2)C3(CC3)[S@](=N)(=O)C)C4=C5C=CNC5=NC=C4 [AZD6738] (first compound max 1 µM, 7x7, partner max 10 µM) | 0.0047 | -0.0328 | -0.0504 | -0.0174 | -0.0294 | -0.0296 | -0.0019 | -0.0195 | -0.1 | 0.0294 | 0.01 | 0.0224 | -0.0005 | -0.0217 | -0.0314 | -0.0099 | 0.0209 | 0.0045 | 0.0098 | 0.0159
CC1(C)CCC(CN2CCN(c3ccc(C(=O)NS(=O)(=O)c4ccc(NCC5CCOCC5)c([N+](=O)[O-])c4)c(Oc4cnc5[nH]ccc5c4)c3)CC2)=C(c2ccc(Cl)cc2)C1 [Venetoclax] + C1CN(CCC1(C(=O)N[C@@H](CCO)C2=CC=C(C=C2)Cl)N)C3=NC=NC4=C3C=CN4 [Capivasertib] (first compound max 1 µM, 7x7, partner max 3 µM) | -0.0357 | -0.0423 | -0.0312 | -0.0173 | -0.0173 | 0.0009 | -0.0114 | -0.0331 | -0.0196 | -0.0488 | -0.0589 | 0.0042 | -0.0045 | -0.0193 | -0.0429 | -0.0243 | 0.0017 | -0.0272 | -0.0458 | -0.0808
CN(C)CCCOc1ccc(-c2ccc3ncc4c(c3c2)n(C2CCOCC2)c(=O)n4C)cn1 [AZD0156] + O=C(c1cc(Cc2n[nH]c(=O)c3ccccc23)ccc1F)N1CCN(C(=O)C2CC2)CC1 [Olaparib] (first compound max 3 µM, partner max 3 µM) | 0.0121 | 0.125 | -0.0299 | -0.002 | -0.0046 | 0.0739 | 0.109 | 0.109 | 0.0405 | 0.0772 | 0.312 | 0.158 | -0.0014 | -0.0043 | 0.0576 | 0.046 | 0.0009 | -0.0407 | 0.0369 | 0.334
CC1(C)CCC(CN2CCN(c3ccc(C(=O)NS(=O)(=O)c4ccc(NCC5CCOCC5)c([N+](=O)[O-])c4)c(Oc4cnc5[nH]ccc5c4)c3)CC2)=C(c2ccc(Cl)cc2)C1 [Venetoclax] + Cc1cc2ncnn2cc1Nc1ncc2c(n1)n(C1CCOCC1)c(=O)n2C [AZD7648] (first compound max 1 µM, 7x7, partner max 10 µM) | -0.0089 | -0.0584 | -0.0346 | -0.0061 | 0.0156 | -0.0325 | -0.0175 | -0.017 | -0.0444 | 0.038 | 0.0365 | 0.044 | -0.048 | -0.0217 | -0.0519 | -0.0019 | -0.0064 | -0.0497 | -0.0227 | 0.0053
NC1(C(=O)N[C@@H](CCO)c2ccc(Cl)cc2)CCN(c2ncnc3[nH]ccc23)CC1 [Capivasertib] + C[C@@H]1COCCN1C2=NC(=NC(=C2)C3(CC3)[S@](=N)(=O)C)C4=C5C=CNC5=NC=C4 [AZD6738] (first compound max 10 µM, 7x7, partner max 10 µM) | -0.0468 | 0.0092 | -0.0247 | -0.159 | -0.0856 | 0.0085 | -0.0415 | -0.0239 | -0.0312 | -0.0804 | 0.0172 | 0.0092 | -0.0194 | -0.0824 | -0.0494 | -0.0463 | 0.0028 | -0.0161 | -0.0279 | -0.0364
CN(CCO)CC[C@H](CSc1ccccc1)Nc1ccc(S(=O)(=O)NC(=O)c2ccc(N3CCC([C@@H](O)c4ccccc4-c4ccc(Cl)cc4)CC3)cc2)cc1S(=O)(=O)C(F)(F)F [AZD4320] + Cc1cc2ncnn2cc1Nc1ncc2c(n1)n(C1CCOCC1)c(=O)n2C [AZD7648] (first compound max 1 µM, 7x7, partner max 10 µM) | -0.0436 | -0.0132 | -0.0613 | -0.0458 | 0.0198 | -0.0234 | -0.016 | -0.0227 | -0.0325 | -0.0397 | -0.0346 | 0.0282 | -0.04 | -0.0588 | -0.046 | -0.0225 | 0.0306 | 0.0041 | 0.012 | -0.0281
Cn1cnc2c(F)c(Nc3ccc(Br)cc3Cl)c(C(=O)NOCCO)cc21 [Selumetinib] + C=CCn1c(=O)c2cnc(Nc3ccc(N4CCN(C)CC4)cc3)nc2n1-c1cccc(C(C)(C)O)n1 [AZD1775] (first compound max 10 µM, partner max 1 µM) | -0.0093 | -0.0256 | -0.0769 | -0.0585 | -0.0714 | -0.0187 | -0.0343 | -0.0293 | -0.0432 | -0.0424 | -0.043 | 0.0378 | -0.0218 | -0.0298 | -0.0299 | -0.0713 | -0.0658 | -0.08 | -0.106 | -0.0125
CC1(C)CCC(CN2CCN(c3ccc(C(=O)NS(=O)(=O)c4ccc(NCC5CCOCC5)c([N+](=O)[O-])c4)c(Oc4cnc5[nH]ccc5c4)c3)CC2)=C(c2ccc(Cl)cc2)C1 [Venetoclax] + C=CCn1c(=O)c2cnc(Nc3ccc(N4CCN(C)CC4)cc3)nc2n1-c1cccc(C(C)(C)O)n1 [AZD1775] (first compound max 1 µM, partner max 1 µM) | -0.0079 | -0.0661 | -0.0757 | -0.0559 | -0.0082 | -0.0225 | 0.0674 | 0.0098 | -0.055 | 0.0086 | -0.027 | 0.0922 | -0.0159 | -0.047 | -0.0737 | -0.0335 | 0.0593 | -0.0004 | 0.0342 | -0.0113
CN(CCO)CC[C@H](CSc1ccccc1)Nc1ccc(S(=O)(=O)NC(=O)c2ccc(N3CCC([C@@H](O)c4ccccc4-c4ccc(Cl)cc4)CC3)cc2)cc1S(=O)(=O)C(F)(F)F [AZD4320] + C[C@@H]1COCCN1C2=NC(=NC(=C2)C3(CC3)[S@](=N)(=O)C)C4=C5C=CNC5=NC=C4 [AZD6738] (first compound max 1 µM, 7x7, partner max 10 µM) | 0.006 | -0.0575 | -0.0025 | -0.0306 | -0.011 | 0.0368 | 0.0198 | -0.0564 | 0.009 | -0.0341 | 0.0294 | 0.0394 | 0.0178 | -0.0135 | -0.041 | 0.0111 | 0.033 | -0.0415 | -0.0251 | -0.0515
COc1cc2ncnc(Nc3ccc(F)c(Cl)c3)c2cc1OCCCN1CCOCC1 [Gefitinib] + CC(C)n1c(=O)n(C)c2cnc3cc(F)c(-c4ccc(OCCCN5CCCCC5)nc4)cc3c21 [AZD1390] (first compound max 10 µM, 7x7, partner max 0.3 µM) | -0.0193 | -0.0578 | -0.0586 | -0.0623 | -0.0473 | -0.0583 | -0.0522 | -0.0525 | -0.0593 | -0.0526 | -0.0317 | -0.0419 | -0.0812 | -0.0625 | -0.0941 | -0.0491 | -0.0388 | -0.0482 | -0.0088 | -0.0629
NC1(C(=O)N[C@@H](CCO)c2ccc(Cl)cc2)CCN(c2ncnc3[nH]ccc23)CC1 [Capivasertib] + CCN(CCO)CCCOc1ccc2c(Nc3cc(CC(=O)Nc4cccc(F)c4)[nH]n3)ncnc2c1 [AZD2811] (first compound max 10 µM, 7x7, partner max 1 µM) | -0.017 | -0.0551 | -0.0598 | -0.0053 | -0.0114 | -0.0255 | -0.0124 | -0.015 | -0.0397 | 0.06 | -0.0743 | 0.0001 | -0.0236 | -0.0423 | -0.0095 | -0.0107 | -0.0045 | -0.0179 | 0.0054 | -0.0793
